Test results as given in PMC4433804 (Nature chemical biology, 2015).

Molecular target: RPE65 (bovine RPE microsomes as the enzyme source) (Bos taurus, UniProt Q28175)
Assay: in vitro retinoid isomerase activity assay
Assay type: biochemical

Chain of UniProt Q28175 (Q28175 whole entry): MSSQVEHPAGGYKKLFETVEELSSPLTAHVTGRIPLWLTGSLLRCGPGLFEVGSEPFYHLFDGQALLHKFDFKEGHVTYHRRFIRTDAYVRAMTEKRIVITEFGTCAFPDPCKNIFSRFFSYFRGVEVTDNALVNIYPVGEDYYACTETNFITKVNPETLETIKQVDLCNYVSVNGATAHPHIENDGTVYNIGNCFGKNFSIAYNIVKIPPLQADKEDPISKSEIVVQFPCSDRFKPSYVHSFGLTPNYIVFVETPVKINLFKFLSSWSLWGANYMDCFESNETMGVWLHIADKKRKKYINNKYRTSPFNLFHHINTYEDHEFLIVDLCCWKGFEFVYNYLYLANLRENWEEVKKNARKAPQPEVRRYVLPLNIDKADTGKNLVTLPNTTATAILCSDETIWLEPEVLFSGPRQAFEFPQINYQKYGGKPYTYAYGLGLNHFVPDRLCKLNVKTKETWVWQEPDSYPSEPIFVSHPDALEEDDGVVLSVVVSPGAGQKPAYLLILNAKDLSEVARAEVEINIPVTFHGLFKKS

IC50: 396 ± 58 nM
Structure (SMILES): CC1=C(COc2cccc([C@H](O)CCN)c2)C(C)(C)CCC1 [MB-001, (R)-3-amino-1-(3-((2,6,6-trimethylcyclohex-1-en-1-yl)methoxy)phenyl)propan-1-ol]
